The values that follow come from ChEMBL document CHEMBL1132130, “Synthesis of heterocyclic enol ethers and their use as group 2 metabotropic glutamate receptor antagonists” (Bioorg Med Chem Lett, 1999).

A word on the IC50: it is the concentration at which inhibition is half-maximal.

The source made the active and inactive calls. The rule behind the calls is not given here. Where only a bound is given, the exact number is not on record here.

The target of assay [1] is Metabotropic glutamate receptor 5 (Rattus norvegicus) (UniProt P31424). Put plainly: Compound was tested for agonistic or antagonistic activity on rat mGluR5 using intracellular Ca 2+ measurement up to 100 uM; IA means devoid of activity. The format is functional, cell-based.
The target of assay [2] is Glutamate receptor ionotropic, AMPA (Rattus norvegicus) (UniProt P19491+P19492+P19493+P19490). The assay is described as follows: Compound was tested for inhibition of binding of [3H]-Ro- 48-8587 to Ionotropic glutamate receptor AMPA in rat brain membranes up to 100 uM; IA means inactive. The format is cell membranes.
Assay [3] addresses Metabotropic glutamate receptor 1 (Rattus norvegicus) (UniProt P23385). The assay is described as follows: Compound was tested for agonistic or antagonistic activity on rat mGluR1 using intracellular Ca 2+ measurement up to 100 uM; IA means devoid of activity. The format is functional, cell-based.
Assay [4] concerns the target Glutamate receptor ionotropic, NMDA 2C (Rattus norvegicus) (UniProt Q00961). Put plainly: Compound was tested for inhibition of binding of [3H]-MK 801 to NMDA receptor in rat brain membranes up to 100 uM; IA means inactive. The format is cell membranes.
The target of assay [5] is T1, Metabotropic glutamate receptor 2 (Rattus norvegicus, UniProt P31421). Put plainly: Inhibition of 10 uM 1S, 3R-ACPD stimulated GTP gamma 35S binding to rat mGluR2 expressed in CHO cells. The format is cell-based.
The target in assay [6] is Glutamate receptor ionotropic, kainate (Rattus norvegicus) (UniProt P22756+Q01812+P42260+P42264+Q63273). The assay is described as follows: Compound was tested for inhibition of binding of [3H]kainate to Ionotropic glutamate receptor kainate in rat brain membranes up to 100 uM; IA means inactive. The format is cell membranes.
The target of assay [7] is T1, Metabotropic glutamate receptor 2. Put plainly: Inhibition of [3H]-DCG IV binding on rat mGluR2 transfected cell membranes from CHO cells.
Assay [8] has as its target Metabotropic glutamate receptor 4 (Rattus norvegicus) (UniProt P31423). The assay is described as follows: Compound was tested for agonistic or antagonistic activity on rat mGluR4 using the GTP-gamma 35S binding model up to 100 uM; IA means devoid of activity. (Binding of GTPγS marks nucleotide exchange on a G protein.)
In assay [9] the target is T1, Metabotropic glutamate receptor 2. Put plainly: Inhibition of 1S, 3R-ACPD (10 uM)-stimulated GTP gamma 35S binding on rat mGluR2 transfected cell membranes from CHO cells.

T1 sequence (P31421 whole entry): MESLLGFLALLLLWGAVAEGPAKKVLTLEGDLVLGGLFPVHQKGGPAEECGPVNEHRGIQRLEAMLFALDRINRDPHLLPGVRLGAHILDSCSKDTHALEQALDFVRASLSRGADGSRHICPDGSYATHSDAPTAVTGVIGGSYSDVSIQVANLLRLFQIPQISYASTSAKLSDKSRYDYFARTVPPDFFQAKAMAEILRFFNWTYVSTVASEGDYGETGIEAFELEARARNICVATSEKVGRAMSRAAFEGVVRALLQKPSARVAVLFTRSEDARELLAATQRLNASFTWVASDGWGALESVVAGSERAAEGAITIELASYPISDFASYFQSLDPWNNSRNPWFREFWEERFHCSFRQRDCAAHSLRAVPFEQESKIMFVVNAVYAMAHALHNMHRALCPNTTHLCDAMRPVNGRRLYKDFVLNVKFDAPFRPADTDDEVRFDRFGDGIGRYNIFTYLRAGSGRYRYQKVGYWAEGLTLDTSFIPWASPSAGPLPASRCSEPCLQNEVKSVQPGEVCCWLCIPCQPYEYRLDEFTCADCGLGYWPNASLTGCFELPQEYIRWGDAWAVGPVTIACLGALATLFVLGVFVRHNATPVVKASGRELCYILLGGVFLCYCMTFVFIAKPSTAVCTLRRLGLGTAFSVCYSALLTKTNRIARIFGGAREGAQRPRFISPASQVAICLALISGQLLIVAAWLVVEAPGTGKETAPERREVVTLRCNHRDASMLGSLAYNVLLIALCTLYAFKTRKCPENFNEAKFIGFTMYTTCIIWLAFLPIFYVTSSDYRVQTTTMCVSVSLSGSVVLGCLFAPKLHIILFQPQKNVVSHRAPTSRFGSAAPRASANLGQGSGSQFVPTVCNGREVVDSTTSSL
Chain of Metabotropic glutamate receptor 4 (Rattus norvegicus) (P31423 whole entry): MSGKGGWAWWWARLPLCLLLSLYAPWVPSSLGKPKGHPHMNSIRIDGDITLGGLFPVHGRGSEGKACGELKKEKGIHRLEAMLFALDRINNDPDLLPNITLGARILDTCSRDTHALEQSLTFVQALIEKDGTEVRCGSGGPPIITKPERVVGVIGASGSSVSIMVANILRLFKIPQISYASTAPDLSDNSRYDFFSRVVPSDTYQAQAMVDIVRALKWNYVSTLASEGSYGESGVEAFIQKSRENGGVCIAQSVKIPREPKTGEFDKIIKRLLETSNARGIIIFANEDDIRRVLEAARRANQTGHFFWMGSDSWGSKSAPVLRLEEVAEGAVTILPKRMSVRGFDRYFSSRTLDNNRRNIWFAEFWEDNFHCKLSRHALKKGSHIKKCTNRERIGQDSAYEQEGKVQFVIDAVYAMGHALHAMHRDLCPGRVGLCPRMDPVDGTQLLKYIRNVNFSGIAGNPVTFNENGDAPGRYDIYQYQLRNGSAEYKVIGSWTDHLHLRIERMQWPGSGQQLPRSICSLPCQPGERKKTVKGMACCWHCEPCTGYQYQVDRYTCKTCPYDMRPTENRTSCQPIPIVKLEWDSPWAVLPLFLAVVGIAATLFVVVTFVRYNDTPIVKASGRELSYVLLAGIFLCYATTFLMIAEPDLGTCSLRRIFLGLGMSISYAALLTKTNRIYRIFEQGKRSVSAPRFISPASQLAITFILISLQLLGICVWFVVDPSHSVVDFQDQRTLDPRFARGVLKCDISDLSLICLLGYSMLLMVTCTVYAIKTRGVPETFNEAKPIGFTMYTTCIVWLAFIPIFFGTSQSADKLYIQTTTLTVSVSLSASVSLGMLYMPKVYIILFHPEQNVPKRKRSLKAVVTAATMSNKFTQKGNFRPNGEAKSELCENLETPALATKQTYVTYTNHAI
Chain of Metabotropic glutamate receptor 5 (Rattus norvegicus) (P31424 21-1203 limits assumed): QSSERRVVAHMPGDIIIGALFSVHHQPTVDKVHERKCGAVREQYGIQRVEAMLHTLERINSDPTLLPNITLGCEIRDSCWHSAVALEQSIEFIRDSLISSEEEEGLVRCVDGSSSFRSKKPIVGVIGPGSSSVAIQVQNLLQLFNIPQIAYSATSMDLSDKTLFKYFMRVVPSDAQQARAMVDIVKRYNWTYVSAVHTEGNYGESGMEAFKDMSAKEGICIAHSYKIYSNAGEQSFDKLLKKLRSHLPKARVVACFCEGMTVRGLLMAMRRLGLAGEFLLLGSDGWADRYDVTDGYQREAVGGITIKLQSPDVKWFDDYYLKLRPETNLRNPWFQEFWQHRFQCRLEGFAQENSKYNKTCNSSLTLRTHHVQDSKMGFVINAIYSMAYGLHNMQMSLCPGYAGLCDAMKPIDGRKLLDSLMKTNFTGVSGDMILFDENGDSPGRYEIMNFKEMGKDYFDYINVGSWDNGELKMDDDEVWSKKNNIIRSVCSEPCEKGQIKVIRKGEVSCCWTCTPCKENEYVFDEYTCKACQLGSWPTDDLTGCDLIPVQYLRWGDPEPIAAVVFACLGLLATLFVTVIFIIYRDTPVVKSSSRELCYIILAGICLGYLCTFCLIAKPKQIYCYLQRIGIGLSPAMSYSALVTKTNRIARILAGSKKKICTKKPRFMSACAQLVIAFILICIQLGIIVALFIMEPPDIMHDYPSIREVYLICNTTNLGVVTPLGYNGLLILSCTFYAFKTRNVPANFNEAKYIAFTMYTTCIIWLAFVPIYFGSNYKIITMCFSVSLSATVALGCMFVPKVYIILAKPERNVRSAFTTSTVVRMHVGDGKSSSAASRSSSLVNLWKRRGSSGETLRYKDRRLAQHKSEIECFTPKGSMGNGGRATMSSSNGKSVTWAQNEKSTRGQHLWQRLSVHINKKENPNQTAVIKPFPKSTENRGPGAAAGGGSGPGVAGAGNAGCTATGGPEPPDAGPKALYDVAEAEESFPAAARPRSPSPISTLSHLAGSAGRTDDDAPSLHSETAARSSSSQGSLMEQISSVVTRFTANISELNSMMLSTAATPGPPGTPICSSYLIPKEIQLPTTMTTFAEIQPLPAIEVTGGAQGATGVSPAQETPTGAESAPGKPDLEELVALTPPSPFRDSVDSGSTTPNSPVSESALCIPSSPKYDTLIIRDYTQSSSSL
Chain of Metabotropic glutamate receptor 1 (Rattus norvegicus) (P23385 19-1199 limits assumed): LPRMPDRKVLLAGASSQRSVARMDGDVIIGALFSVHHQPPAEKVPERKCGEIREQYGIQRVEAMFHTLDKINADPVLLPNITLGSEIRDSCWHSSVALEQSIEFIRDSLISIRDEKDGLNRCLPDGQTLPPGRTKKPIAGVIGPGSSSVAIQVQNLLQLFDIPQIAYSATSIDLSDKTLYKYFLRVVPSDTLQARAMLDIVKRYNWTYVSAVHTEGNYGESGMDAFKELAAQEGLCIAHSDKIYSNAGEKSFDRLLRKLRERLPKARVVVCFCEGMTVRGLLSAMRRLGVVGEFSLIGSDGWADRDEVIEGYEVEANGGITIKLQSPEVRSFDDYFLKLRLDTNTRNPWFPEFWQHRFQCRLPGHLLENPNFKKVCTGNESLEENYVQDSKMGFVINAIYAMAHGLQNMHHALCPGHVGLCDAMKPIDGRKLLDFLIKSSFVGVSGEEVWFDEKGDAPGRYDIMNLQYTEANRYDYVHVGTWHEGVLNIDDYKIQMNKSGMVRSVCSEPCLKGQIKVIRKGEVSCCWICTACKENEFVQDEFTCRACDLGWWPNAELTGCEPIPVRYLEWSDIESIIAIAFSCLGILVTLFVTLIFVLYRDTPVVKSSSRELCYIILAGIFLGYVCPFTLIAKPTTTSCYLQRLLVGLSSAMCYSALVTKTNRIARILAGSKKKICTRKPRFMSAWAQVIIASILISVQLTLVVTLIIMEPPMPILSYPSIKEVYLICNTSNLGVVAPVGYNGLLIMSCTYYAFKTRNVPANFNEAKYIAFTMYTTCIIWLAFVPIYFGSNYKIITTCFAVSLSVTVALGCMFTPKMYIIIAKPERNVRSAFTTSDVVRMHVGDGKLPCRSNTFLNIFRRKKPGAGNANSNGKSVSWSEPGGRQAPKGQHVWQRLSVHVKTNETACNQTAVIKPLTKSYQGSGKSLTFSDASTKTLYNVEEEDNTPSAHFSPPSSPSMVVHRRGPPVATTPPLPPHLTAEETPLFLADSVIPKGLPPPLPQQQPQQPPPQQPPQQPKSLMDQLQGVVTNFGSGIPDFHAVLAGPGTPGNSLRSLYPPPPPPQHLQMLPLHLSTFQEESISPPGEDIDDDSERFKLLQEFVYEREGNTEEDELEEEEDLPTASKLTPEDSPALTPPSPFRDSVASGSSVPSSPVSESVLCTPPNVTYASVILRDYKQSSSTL

As for `Clc1cccc(Cl)c1/C(=C/n1cncn1)OC1CCCCCC1`, the result in assay [1], in assay [2], in [3], in assay [4], in assay [6] and in assay [8] was inactive. Also, the figures for the IC50 in assay [5] and in assay [7] were 0.11 µM and 0.5 µM, respectively.

`COc1ccc(/C(=C/n2cncn2)OC(C)C)c(OC)c1` came in with an IC50 in assay [9] above 100 µM.
